# Test results taken from PMC10057980, “Pharmacokinetics of Orally Applied Cannabinoids and Medical Marijuana Extracts in Mouse Nervous Tissue and Plasma: Relevance for Pain Treatment” (Pharmaceutics, 2023).
# Assays:
# [1] = set-up: method as in PMID 21796370; settings: CBD orally given to mice; cited from earlier work
# [2] = test system: mechanical hypersensitivity in spared nerve injury (SNI) mice; experiment: Von Frey mechanical thresholds in the spared nerve injury (SNI) model; type: in vivo, C57BL/6J mice; settings: day 7 after surgery, single oral dose: 20 mg/kg pure CBD or THC, 40 mg/kg THC+ extract, 1560 mg/kg THC- extract, CBD effect at 4 h, p = 0.022 vs vehicle
# Method: SNI surgery was performed as previously described. In short, mice were anesthetized by intraperitoneal (i.p.) injections of 10 mg/kg Xylazine (AniMedica GmbH—a LIVISTO company, Senden, Germany) and 100 mg/kg Ketamine (AniMedica GmbH—a LIVISTO company, Senden, Germany). The skin on the lateral surface of the thigh was incised and the sciatic nerve exposed by separating the biceps femoris muscle through incision of the connective tissue without wounding the muscle. The common peroneal and tibial nerves were ligated with 4-0 Vicryl (Sh-1 plus; Raritan, NJ, USA) and a portion of 3 mm length was excised around the ligation site. Care was taken to avoid any mechanical damage to the sural nerve. After dissection, the muscle and skin were sutured using 4-0 Vicryl. Mice were left to recover at 37 °C until they regained consciousness.
# The von Frey test was performed as previously described. In brief, mice were placed in a Plexiglas chamber on an elevated iron-mesh floor and allowed to habituate before testing. […] Withdrawal thresholds were calculated according to the up-and-down method. Von Frey results were analysed using repeated measure ANOVA.
# [3] = Cannabinoid and metabolite concentrations in plasma, brain and spinal cord after single oral gavage (LC-MS/MS, non-compartmental PK); settings: mice
# [4] = set-up: method as in PMID 12648025, PMID 17712819, PMID 30534073; settings: cited from earlier work
# [5] = high dose, oral gavage (40 mg/kg THC+ extract, 20 mg/kg pure THC), plasma, brain and spinal cord
SMILES,brain–plasma ratio [1],effect on mechanical withdrawal thresholds (von Frey) [2],"time of maximum CBD concentration ([3]; pure CBD compound, 1 and 20 mg/kg bodyweight, oral)","absorption rate of CBD compared with THC, brain ([3]; pure compounds, oral, brain)","absorption rate of CBD compared with THC, spinal cord ([3]; pure compounds, oral, spinal cord)",time detectable in organs including the brain after application [4],"time of peak concentration of OH-THC ([3]; high dose, oral (40 mg/kg THC+ extract, 20 mg/kg pure THC), brain tissue)","time at which Δ9-THC was detectable in all tissues [3, 5]","time of maximum Δ9-THC concentration [3, 5]","Δ9-THC concentrations in all sample types ([3]; low dose, oral gavage (2 mg/kg THC+ extract, 1 mg/kg pure THC), plasma, brain and spinal cord)"
"C=C(C)[C@@H]1CCC(C)=C[C@H]1c1c(O)cc(CCCCC)cc1O [CBD, cannabidiol]",3.54,alleviated mechanical hypersensitivity,2 h,2.8 fold,1.7 fold,more than 24 h,,,,
"CCCCCc1cc(O)c2c(c1)OC(C)(C)[C@@H]1CCC(C)=C[C@@H]21 [pure THC, Δ9-Tetrahydrocannabinol]",,did not affect mechanical withdrawal thresholds,,,,more than 24 h,2 h,1 h,2 h,negligible concentrations
